Experiment: mn = molality of the nth substance listed, in mol/kg
Conditions: Liquid, Vibrating tube method

NCC(=O)[O-].[K+] [potassium glycinate] + O
mass density [kg/m3], 101 kPa
Conditions	m1 = 0.99	m1 = 1.78
293 K	1065	1130
298 K	1064	1128
303 K	1062	1126
308 K	1060	1124
313 K	1058	1121
318 K	1056	1119
323 K	1053	1116
328 K	1051	1114
333 K	1048	1111
338 K	1045	1108
343 K	1042	1105
348 K	1039	1102
353 K	1036	1099
358 K	1033	1096
363 K	1030	1093
373 K	1023	1086
393 K	1007	–

NCCS(=O)(=O)[O-].[K+] [potassium taurate] + O
mass density [kg/m3]
Conditions	m1 = 0.89	m1 = 1.6
283 K	1084	–
288 K	1083	–
293 K	1081	1145
298 K	1079	1143
303 K	1078	1141
308 K	1076	1139
313 K	1073	1136
318 K	1071	1134
323 K	1069	1131
328 K	1066	1129
333 K	1064	1126
338 K	1061	1123
343 K	1058	1120
348 K	–	1117
353 K	1051	1114
358 K	–	1111
363 K	–	1108
373 K	1037	1101
393 K	1021	1086
